Values after ≈ are worked out from the molar mass of the structure shown.
Assays:
Klebsiella pneumoniae [1] = assay: Antibacterial activity against Klebsiella pneumoniae ATCC 13883 assessed as growth inhibition by broth dilution method; assay type: functional
Enterococcus faecalis = assay: Antibacterial activity against Enterococcus faecalis ATCC 29212 assessed as growth inhibition by broth dilution method; assay type: functional
Enterococcus faecium = assay: Antibacterial activity against Enterococcus faecium ATCC 19434 assessed as growth inhibition by broth dilution method; assay type: functional
Pseudomonas aeruginosa = assay: Antibacterial activity against Pseudomonas aeruginosa ATCC 27853 assessed as growth inhibition by broth dilution method; assay type: functional
Campylobacter jejuni = assay: Antibacterial activity against Campylobacter jejuni NCTC 11168 assessed as growth inhibition by broth dilution method; assay type: functional
[2] = Hemolytic activity in rabbit erythrocytes at 83 ug/mL after 30 mins relative to control; assay type: ADME, cell-based, Oryctolagus cuniculus, Erythrocyte; settings: read-out: Activity
Salmonella enterica = assay: Antibacterial activity against Salmonella enterica ATCC 13311 assessed as growth inhibition by broth dilution method; assay type: functional
[3] = Cytotoxicity against HEK293 cells assessed as growth inhibition after 48 hrs by MTT assay; assay type: cell-based; settings: human, read-out: MIC
Listeria monocytogenes = assay: Antibacterial activity against Listeria monocytogenes ATCC […] assessed as growth inhibition by broth dilution method; assay type: functional
Staphylococcus aureus = assay: Antibacterial activity against Staphylococcus aureus ATCC 29213 assessed as growth inhibition by broth dilution method; assay type: functional
Acinetobacter baumannii = assay: Antibacterial activity against Acinetobacter baumannii ATCC 19606 assessed as growth inhibition by broth dilution method; assay type: functional
Escherichia coli [4] = assay: Antibacterial activity against Escherichia coli ATCC 25922 assessed as growth inhibition by broth dilution method; assay type: functional
[5] = Antibacterial activity against multi-drug resistant Clostridium difficile 630 assessed as growth inhibition by broth dilution method; assay type: functional, Clostridioides difficile 630; settings: Clostridioides difficile
Escherichia coli [6] = assay: Antibacterial activity against Escherichia coli O157:H7 assessed as growth inhibition by broth dilution method; assay type: functional
Klebsiella pneumoniae [7] = assay: Antibacterial activity against multi-drug resistant Klebsiella pneumoniae KpCG clinical isolate assessed as growth inhibition by broth dilution method; assay type: functional
Enterobacter cloacae = assay: Antibacterial activity against multi-drug resistant Enterobacter cloacae 849 clinical isolate assessed as growth inhibition by broth dilution method; assay type: functional

CC[C@H](C)CC[C@@H](O)CC(=O)N[C@@H](C(=O)N[C@H](CCN)C(=O)NCC(=O)N[C@H](CO)C(=O)N[C@H](Cc1c[nH]c2ccccc12)C(=O)N[C@@H](CO)C(=O)N[C@@H](CCN)C(=O)N[C@H](CCN)C(=O)N[C@@H](Cc1ccccc1)C(=O)N[C@@H](CCC(=O)O)C(=O)N[C@H](C(=O)N[C@@H](C(=O)N[C@@H](C)C(=O)O)[C@@H](C)CC)C(C)C)C(C)C
MIC (Klebsiella pneumoniae [1]): 3.13 µg/mL (≈ 2.02 µM)
MIC (Enterococcus faecalis): > 100 µg/mL
MIC (Enterococcus faecium): > 100 µg/mL
MIC (Pseudomonas aeruginosa): 50 µg/mL (≈ 32.2 µM)
MIC (Campylobacter jejuni): 1.56 µg/mL (≈ 1.01 µM)
hemolysis at 0.5 h, 83 ug/mL [2]: 3.2%
MIC (Salmonella enterica): 6.25 µg/mL (≈ 4.03 µM)
MCC at 48 h [3]: 200 µg/mL
MIC (Listeria monocytogenes): 50 µg/mL (≈ 32.2 µM)
MIC (Staphylococcus aureus): > 100 µg/mL
MIC (Acinetobacter baumannii): 12.5 µg/mL (≈ 8.06 µM)
MIC (Escherichia coli [4]): 3.13 µg/mL (≈ 2.02 µM)

CC[C@@H](C)CC[C@@H](O)CC(=O)N[C@@H](C(=O)N[C@H](CCN)C(=O)NCC(=O)N[C@H](CO)C(=O)N[C@H](Cc1c[nH]c2ccccc12)C(=O)N[C@@H](CO)C(=O)N[C@@H](CCN)C(=O)N[C@H](CCN)C(=O)N[C@@H](Cc1ccccc1)C(=O)N[C@@H](CCC(=O)O)C(=O)N[C@H](C(=O)N[C@@H](C(=O)N[C@@H](C)C(=O)O)[C@@H](C)CC)C(C)C)C(C)C
MIC (Klebsiella pneumoniae [1]): 6.25 µg/mL (≈ 4.03 µM)
MIC (Enterococcus faecalis): > 100 µg/mL
MIC (Enterococcus faecium): > 100 µg/mL
MIC (Pseudomonas aeruginosa): 50 µg/mL (≈ 32.2 µM)
MIC (Campylobacter jejuni): 3.13 µg/mL (≈ 2.02 µM)
MIC (Salmonella enterica): 6.25 µg/mL (≈ 4.03 µM)
MIC (Listeria monocytogenes): 100 µg/mL (≈ 64.5 µM)
MIC (Staphylococcus aureus): > 100 µg/mL
MIC (Acinetobacter baumannii): 12.5 µg/mL (≈ 8.06 µM)
MIC (Escherichia coli [4]): 3.13 µg/mL (≈ 2.02 µM)

CC[C@H](C)[C@@H](NC(=O)[C@@H](NC(=O)[C@H](CCC(=O)O)NC(=O)[C@H](Cc1ccccc1)NC(=O)[C@@H](CCN)NC(=O)[C@H](CCN)NC(=O)[C@H](CO)NC(=O)[C@@H](Cc1c[nH]c2ccccc12)NC(=O)[C@@H](CO)NC(=O)CNC(=O)[C@@H](CCN)NC(=O)[C@H](N)C(C)C)C(C)C)C(=O)N[C@@H](C)C(=O)O
MIC (Klebsiella pneumoniae [1]): 50 µg/mL (≈ 35.9 µM)
MIC (Enterococcus faecalis): > 100 µg/mL
MIC (Enterococcus faecium): > 100 µg/mL
MIC (Pseudomonas aeruginosa): 100 µg/mL (≈ 71.7 µM)
MIC (Campylobacter jejuni): > 100 µg/mL
hemolysis at 0.5 h, 83 ug/mL [2]: 0.5%
MIC (Salmonella enterica): 100 µg/mL (≈ 71.7 µM)
MIC (Listeria monocytogenes): > 100 µg/mL
MIC (Staphylococcus aureus): > 100 µg/mL
MIC (Acinetobacter baumannii): > 100 µg/mL
MIC (Escherichia coli [4]): 100 µg/mL (≈ 71.7 µM)

CCCC(=O)N[C@@H](C(=O)N[C@H](CCN)C(=O)NCC(=O)N[C@H](CO)C(=O)N[C@H](Cc1c[nH]c2ccccc12)C(=O)N[C@@H](CO)C(=O)N[C@@H](CCN)C(=O)N[C@H](CCN)C(=O)N[C@@H](Cc1ccccc1)C(=O)N[C@@H](CCC(=O)O)C(=O)N[C@H](C(=O)N[C@@H](C(=O)N[C@@H](C)C(=O)O)[C@@H](C)CC)C(C)C)C(C)C
MIC (Klebsiella pneumoniae [1]): 25 µg/mL (≈ 17.1 µM)
MIC (Enterococcus faecalis): > 100 µg/mL
MIC (Enterococcus faecium): > 100 µg/mL
MIC (Pseudomonas aeruginosa): > 100 µg/mL
MIC (Campylobacter jejuni): 12.5 µg/mL (≈ 8.53 µM)
hemolysis at 0.5 h, 83 ug/mL [2]: 0.8%
MIC (Salmonella enterica): 25 µg/mL (≈ 17.1 µM)
MIC (Listeria monocytogenes): > 100 µg/mL
MIC (Staphylococcus aureus): > 100 µg/mL
MIC (Acinetobacter baumannii): 100 µg/mL (≈ 68.3 µM)
MIC (Escherichia coli [4]): 12.5 µg/mL (≈ 8.53 µM)

CCCCCCCC(=O)N[C@@H](C(=O)N[C@H](CCN)C(=O)NCC(=O)N[C@H](CO)C(=O)N[C@H](Cc1c[nH]c2ccccc12)C(=O)N[C@@H](CO)C(=O)N[C@@H](CCN)C(=O)N[C@H](CCN)C(=O)N[C@@H](Cc1ccccc1)C(=O)N[C@@H](CCC(=O)O)C(=O)N[C@H](C(=O)N[C@@H](C(=O)N[C@@H](C)C(=O)O)[C@@H](C)CC)C(C)C)C(C)C
MIC [5]: 12.7 µg/mL (≈ 8.35 µM)
MIC (Klebsiella pneumoniae [1]): 3.13 µg/mL (≈ 2.06 µM)
MIC (Enterococcus faecalis): 100 µg/mL (≈ 65.8 µM)
MIC (Enterococcus faecium): 50 µg/mL (≈ 32.9 µM)
MIC (Pseudomonas aeruginosa): 25 µg/mL (≈ 16.4 µM)
MIC (Escherichia coli [6]): 0.43 µg/mL (≈ 0.283 µM)
MIC (Campylobacter jejuni): 0.78 µg/mL (≈ 0.513 µM)
MIC (Klebsiella pneumoniae [7]): 2.33 µg/mL (≈ 1.53 µM)
hemolysis at 0.5 h, 83 ug/mL [2]: 4.7%
MIC (Salmonella enterica): 6.25 µg/mL (≈ 4.11 µM)
MCC at 48 h [3]: 100 µg/mL
MIC (Listeria monocytogenes): 25 µg/mL (≈ 16.4 µM)
MIC (Staphylococcus aureus): 100 µg/mL (≈ 65.8 µM)
MIC (Enterobacter cloacae): 0.43 µg/mL (≈ 0.283 µM)
MIC (Acinetobacter baumannii): 12.5 µg/mL (≈ 8.22 µM)
MIC (Escherichia coli [4]): 3.13 µg/mL (≈ 2.06 µM)

CCCCCCCCCCCC(=O)N[C@@H](C(=O)N[C@H](CCN)C(=O)NCC(=O)N[C@H](CO)C(=O)N[C@H](Cc1c[nH]c2ccccc12)C(=O)N[C@@H](CO)C(=O)N[C@@H](CCN)C(=O)N[C@H](CCN)C(=O)N[C@@H](Cc1ccccc1)C(=O)N[C@@H](CCC(=O)O)C(=O)N[C@H](C(=O)N[C@@H](C(=O)N[C@@H](C)C(=O)O)[C@@H](C)CC)C(C)C)C(C)C
MIC (Klebsiella pneumoniae [1]): 12.5 µg/mL (≈ 7.93 µM)
MIC (Enterococcus faecalis): > 100 µg/mL
MIC (Enterococcus faecium): 100 µg/mL (≈ 63.4 µM)
MIC (Pseudomonas aeruginosa): > 100 µg/mL
MIC (Campylobacter jejuni): 0.4 µg/mL (≈ 0.254 µM)
hemolysis at 0.5 h, 83 ug/mL [2]: 82.2%
MIC (Salmonella enterica): 50 µg/mL (≈ 31.7 µM)
MIC (Listeria monocytogenes): 50 µg/mL (≈ 31.7 µM)
MIC (Staphylococcus aureus): > 100 µg/mL
MIC (Acinetobacter baumannii): 50 µg/mL (≈ 31.7 µM)
MIC (Escherichia coli [4]): 12.5 µg/mL (≈ 7.93 µM)

CC[C@H](C)[C@@H](NC(=O)[C@@H](NC(=O)[C@H](CCC(=O)O)NC(=O)[C@H](Cc1ccccc1)NC(=O)[C@@H](CCN)NC(=O)[C@H](CCN)NC(=O)[C@H](CO)NC(=O)[C@@H](Cc1c[nH]c2ccccc12)NC(=O)[C@@H](CO)NC(=O)CNC(=O)[C@@H](CCN)NC(=O)[C@H](NC(=O)OCC1c2ccccc2-c2ccccc21)C(C)C)C(C)C)C(=O)N[C@@H](C)C(=O)O
MIC (Klebsiella pneumoniae [1]): 6.25 µg/mL (≈ 3.87 µM)
MIC (Enterococcus faecalis): 50 µg/mL (≈ 30.9 µM)
MIC (Enterococcus faecium): 25 µg/mL (≈ 15.5 µM)
MIC (Pseudomonas aeruginosa): > 100 µg/mL
MIC (Campylobacter jejuni): 0.78 µg/mL (≈ 0.482 µM)
hemolysis at 0.5 h, 83 ug/mL [2]: 100%
MIC (Salmonella enterica): 6.25 µg/mL (≈ 3.87 µM)
MIC (Listeria monocytogenes): 12.5 µg/mL (≈ 7.73 µM)
MIC (Staphylococcus aureus): 100 µg/mL (≈ 61.8 µM)
MIC (Acinetobacter baumannii): 12.5 µg/mL (≈ 7.73 µM)
MIC (Escherichia coli [4]): 6.25 µg/mL (≈ 3.87 µM)

From ChEMBL document CHEMBL3112395, “Synthesis and structure-activity relationship studies of N-terminal analogues of the antimicrobial peptide tridecaptin A(1)” (J Med Chem, 2014)
